From ChEMBL document CHEMBL1201862, “PubChem BioAssay data set” (2004)
Activity calls are given as the source filed them.

How the values were obtained:
[1] = inhibitors of SNCA 5'UTR-driven translation, confirmation, luminescence, H4 neuroglioblastoma cells, dose confirmation (AID 2454); type: functional, cell-based;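 also: H4 neuroglioblastoma cells carrying an alpha-synuclein 5'UTR luciferase reporter; potency for inhibition of the luciferase signal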
[2] = Luminescence Cell-Based Dose Response HTS to Identify Inhibitors of 5'UTR Stem-Loop Driven Prion Protein mRNA Translation in H4 Neuroglioblastoma Cells. [Related pubchem assays: 1827 (Project Summary), 1813 (Primary HTS)]; type: functional
[3] = inhibitors of firefly luciferase expression or activity, dose response, H4 neuroglioma cells, luminescence (AID 1990); type: functional, cell-based
[4] = luciferase reporter signal reduction – luminescence, H4-C neuroglioblastoma cells, dose response (AID 2458); type: functional, cell-based;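 also: H4 neuroglioblastoma cells stably carrying a luciferase reporter gene fusion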
cells = type: functional, cell-based
[5] = inhibitors of SNCA 5'UTR-driven reporter translation, confirmation, H4 neuroglioma cells, luminescence (AID 1988); type: functional, cell-based
[6] = cytotoxicity in HEK-293T cells, dose response, cytotoxicity control for TCR NF-kB inhibitor project, luminescence, T-cell screen hits (AID 489026); type: functional, cell-based;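 also: cells exposed to compound about 14 hours before the viability readout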
[7] = target: Glyceraldehyde-3-phosphate dehydrogenase (Homo sapiens, UniProt P04406)
Glyceraldehyde-3-phosphate dehydrogenase, sequence (P04406 whole entry): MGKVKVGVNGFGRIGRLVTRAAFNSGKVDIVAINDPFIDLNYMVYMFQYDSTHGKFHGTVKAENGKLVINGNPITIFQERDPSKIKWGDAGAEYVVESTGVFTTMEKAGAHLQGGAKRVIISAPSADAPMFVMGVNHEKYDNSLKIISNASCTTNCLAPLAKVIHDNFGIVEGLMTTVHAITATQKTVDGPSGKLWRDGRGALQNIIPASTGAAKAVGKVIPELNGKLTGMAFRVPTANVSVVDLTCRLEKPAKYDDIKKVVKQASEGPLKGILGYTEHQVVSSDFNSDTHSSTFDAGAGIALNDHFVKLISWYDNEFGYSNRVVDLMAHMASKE

[8] = target: Heat shock 70 kDa protein 1A (Homo sapiens, UniProt P0DMV8); test: Hsp70 inhibitors, SAR follow-up, biochemical, fluorescence polarization (AID 1072)
Heat shock 70 kDa protein 1A, sequence (P0DMV8 whole entry): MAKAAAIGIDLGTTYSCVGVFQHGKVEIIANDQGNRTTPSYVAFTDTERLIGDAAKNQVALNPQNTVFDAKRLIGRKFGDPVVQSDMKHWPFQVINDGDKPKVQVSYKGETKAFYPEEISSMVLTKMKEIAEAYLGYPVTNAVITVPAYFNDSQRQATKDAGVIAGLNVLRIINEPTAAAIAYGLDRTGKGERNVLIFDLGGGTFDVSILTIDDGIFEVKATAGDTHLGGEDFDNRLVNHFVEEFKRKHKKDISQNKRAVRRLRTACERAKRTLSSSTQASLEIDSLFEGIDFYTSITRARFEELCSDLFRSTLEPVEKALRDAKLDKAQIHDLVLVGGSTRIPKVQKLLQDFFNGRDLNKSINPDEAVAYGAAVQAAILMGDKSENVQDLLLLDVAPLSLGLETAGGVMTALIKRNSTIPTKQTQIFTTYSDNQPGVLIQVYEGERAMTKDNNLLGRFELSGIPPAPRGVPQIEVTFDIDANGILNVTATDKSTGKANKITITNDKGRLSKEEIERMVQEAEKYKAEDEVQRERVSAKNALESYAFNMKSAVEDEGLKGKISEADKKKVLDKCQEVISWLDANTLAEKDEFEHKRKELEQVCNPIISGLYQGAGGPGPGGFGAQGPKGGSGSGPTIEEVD

[9] = target: Heat shock cognate 71 kDa protein (Homo sapiens, UniProt P11142); test: In Vitro Hsc70 Dose Response Fluorescence Polarization Assay. [Related pubchem assays: 1072 ]
Heat shock cognate 71 kDa protein, sequence (P11142 whole entry): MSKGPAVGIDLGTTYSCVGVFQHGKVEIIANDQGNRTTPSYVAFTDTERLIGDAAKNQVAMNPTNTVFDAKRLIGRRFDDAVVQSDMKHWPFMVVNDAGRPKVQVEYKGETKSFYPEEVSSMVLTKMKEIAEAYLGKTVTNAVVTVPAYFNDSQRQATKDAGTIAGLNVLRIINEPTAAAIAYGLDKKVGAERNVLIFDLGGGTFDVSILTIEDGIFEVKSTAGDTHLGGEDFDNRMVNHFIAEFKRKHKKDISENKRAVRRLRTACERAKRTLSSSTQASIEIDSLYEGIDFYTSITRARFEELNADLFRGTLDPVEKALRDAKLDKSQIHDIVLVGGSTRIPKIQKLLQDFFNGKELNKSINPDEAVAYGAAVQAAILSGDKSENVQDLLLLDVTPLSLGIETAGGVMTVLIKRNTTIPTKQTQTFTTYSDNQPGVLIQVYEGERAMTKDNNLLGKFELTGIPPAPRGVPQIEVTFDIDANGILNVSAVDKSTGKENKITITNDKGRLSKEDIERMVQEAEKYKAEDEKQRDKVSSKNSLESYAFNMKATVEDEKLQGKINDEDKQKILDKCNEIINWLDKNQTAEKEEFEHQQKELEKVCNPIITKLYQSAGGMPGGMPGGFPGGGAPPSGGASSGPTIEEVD

[10] = target: T1, Rac GTPase-activating protein 1 (Homo sapiens, UniProt Q9H0H5); test: MgcRacGAP GTPase-activating activity inhibitors, confirmation, biochemical, ADP Hunter fluorescence, primary and confirmatory (AID 624330); type: functional
T1 sequence (Q9H0H5 whole entry): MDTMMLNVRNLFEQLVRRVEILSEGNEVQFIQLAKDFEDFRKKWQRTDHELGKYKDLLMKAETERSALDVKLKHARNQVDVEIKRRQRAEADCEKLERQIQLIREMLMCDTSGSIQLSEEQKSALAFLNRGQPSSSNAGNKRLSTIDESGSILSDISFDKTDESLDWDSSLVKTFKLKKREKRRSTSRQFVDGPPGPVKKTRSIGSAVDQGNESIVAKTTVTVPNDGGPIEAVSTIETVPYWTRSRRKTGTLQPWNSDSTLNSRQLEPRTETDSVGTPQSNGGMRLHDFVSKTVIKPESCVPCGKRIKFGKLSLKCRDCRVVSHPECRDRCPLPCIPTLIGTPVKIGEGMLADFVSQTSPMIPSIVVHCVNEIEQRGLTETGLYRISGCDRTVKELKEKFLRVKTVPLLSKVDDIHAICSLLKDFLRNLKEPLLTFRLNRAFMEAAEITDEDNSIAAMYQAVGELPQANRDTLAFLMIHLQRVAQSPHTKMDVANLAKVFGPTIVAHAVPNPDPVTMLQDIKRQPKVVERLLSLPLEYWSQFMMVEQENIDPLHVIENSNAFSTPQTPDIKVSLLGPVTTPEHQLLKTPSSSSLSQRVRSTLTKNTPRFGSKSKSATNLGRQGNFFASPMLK

[11] = target: T2, Sentrin-specific protease 6 (Homo sapiens, UniProt Q9GZR1); test: SAR Analysis of small molecule inhibitors of Sentrin-specific protease 6 (SENP6) using a Luminescent assay. [Related pubchem assays (depositor defined):AID2582, AID2599]; type: functional
T2 sequence (Q9GZR1 whole entry): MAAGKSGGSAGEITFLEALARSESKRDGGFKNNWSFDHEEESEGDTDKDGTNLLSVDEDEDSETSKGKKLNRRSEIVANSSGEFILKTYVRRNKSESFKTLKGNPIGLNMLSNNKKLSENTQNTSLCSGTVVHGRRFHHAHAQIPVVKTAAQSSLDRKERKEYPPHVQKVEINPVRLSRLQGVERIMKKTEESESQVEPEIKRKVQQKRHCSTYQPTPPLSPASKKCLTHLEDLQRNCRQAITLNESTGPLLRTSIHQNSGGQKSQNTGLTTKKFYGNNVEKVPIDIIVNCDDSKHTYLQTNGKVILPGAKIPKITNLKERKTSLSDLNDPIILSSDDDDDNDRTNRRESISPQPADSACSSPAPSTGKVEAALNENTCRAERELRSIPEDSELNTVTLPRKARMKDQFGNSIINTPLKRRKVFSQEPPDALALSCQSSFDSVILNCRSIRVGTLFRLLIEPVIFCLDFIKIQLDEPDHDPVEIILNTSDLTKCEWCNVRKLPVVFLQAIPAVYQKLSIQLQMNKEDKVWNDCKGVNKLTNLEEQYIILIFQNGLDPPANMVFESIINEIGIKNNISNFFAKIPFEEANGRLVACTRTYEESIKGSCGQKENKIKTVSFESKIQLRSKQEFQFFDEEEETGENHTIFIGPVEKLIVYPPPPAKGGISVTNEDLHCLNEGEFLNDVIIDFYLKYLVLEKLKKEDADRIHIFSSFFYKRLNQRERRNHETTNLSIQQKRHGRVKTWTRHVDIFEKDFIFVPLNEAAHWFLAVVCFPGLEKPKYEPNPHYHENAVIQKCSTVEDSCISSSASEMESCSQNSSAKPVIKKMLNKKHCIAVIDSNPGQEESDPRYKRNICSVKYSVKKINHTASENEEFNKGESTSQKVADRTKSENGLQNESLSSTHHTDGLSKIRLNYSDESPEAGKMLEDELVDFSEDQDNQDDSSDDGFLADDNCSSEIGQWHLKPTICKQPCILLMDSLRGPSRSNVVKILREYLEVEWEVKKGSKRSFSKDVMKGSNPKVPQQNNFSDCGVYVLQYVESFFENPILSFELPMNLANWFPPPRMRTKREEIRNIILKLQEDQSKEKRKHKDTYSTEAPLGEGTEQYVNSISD

[12] = target: T3, Sentrin-specific protease 7 (Homo sapiens, UniProt Q9BQF6); test: SENP7 protease inhibitors, SAR follow-up, biochemical, luminescence (AID 504497); type: functional
T3 sequence (Q9BQF6 whole entry): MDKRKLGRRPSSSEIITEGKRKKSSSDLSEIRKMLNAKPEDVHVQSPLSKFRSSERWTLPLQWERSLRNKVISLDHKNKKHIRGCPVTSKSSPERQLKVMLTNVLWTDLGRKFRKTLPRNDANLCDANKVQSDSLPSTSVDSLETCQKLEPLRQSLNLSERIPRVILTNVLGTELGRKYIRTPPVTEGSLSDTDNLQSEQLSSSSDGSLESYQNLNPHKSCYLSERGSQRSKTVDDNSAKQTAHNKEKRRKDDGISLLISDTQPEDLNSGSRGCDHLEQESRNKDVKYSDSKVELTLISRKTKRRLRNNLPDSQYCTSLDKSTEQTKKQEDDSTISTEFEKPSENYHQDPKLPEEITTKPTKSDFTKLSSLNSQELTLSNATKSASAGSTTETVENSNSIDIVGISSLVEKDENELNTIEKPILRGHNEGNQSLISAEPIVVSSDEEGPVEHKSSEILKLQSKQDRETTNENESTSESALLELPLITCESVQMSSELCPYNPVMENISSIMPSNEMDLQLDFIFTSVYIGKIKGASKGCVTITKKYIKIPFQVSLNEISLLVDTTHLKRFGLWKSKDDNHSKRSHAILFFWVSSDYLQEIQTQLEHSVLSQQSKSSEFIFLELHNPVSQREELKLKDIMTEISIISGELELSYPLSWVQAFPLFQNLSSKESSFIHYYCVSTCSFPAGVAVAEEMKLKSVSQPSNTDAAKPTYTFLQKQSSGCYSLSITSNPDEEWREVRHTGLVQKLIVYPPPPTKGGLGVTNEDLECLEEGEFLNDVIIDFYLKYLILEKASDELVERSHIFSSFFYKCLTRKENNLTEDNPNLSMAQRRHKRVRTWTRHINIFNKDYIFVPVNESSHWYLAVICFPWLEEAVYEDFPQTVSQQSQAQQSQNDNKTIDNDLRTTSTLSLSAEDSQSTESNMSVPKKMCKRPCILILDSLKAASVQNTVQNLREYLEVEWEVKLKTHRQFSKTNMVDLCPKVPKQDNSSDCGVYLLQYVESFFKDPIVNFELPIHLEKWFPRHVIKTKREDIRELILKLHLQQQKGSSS

Caspase-3 = target: T4, Caspase-3 (Homo sapiens, UniProt P42574); test: SAR Analysis of small molecule inhibitors of Sentrin-specific proteases (SENPs) using a Caspase-3 Selectivity assay. [Related pubchem assays (depositor defined):AID2540, AID2599, AID434973, AID489001]; type: functional
T4 sequence (P42574 whole entry): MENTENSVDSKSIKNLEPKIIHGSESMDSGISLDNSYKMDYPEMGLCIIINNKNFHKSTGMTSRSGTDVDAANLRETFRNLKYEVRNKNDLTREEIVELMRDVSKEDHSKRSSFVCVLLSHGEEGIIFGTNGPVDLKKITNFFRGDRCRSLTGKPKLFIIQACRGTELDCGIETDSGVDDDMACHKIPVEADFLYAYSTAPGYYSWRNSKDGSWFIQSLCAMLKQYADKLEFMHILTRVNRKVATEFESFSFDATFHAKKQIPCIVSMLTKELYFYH

[13] = HepG2 cell cytotoxicity, dose response, cytotoxicity control, plate reader, cherry-pick, antagonist series (AID 743416); type: functional, cell-based
[14] = Luminescence-based counterscreen assay for KLF5 inhibitors: dose response cell-based high throughput screening assay to identify cytotoxic compounds using the IEC-6 intestinal epithelial cell line. [Related pubchem assays: 1700 (Primary screen.), 1834 (Confirmation screen.), 1858 (Summary AID.), 1905 (Counterscreen.)]; type: functional
[15] = LGR2 antagonists, dose response, cell-based, HEK293, CRE-luciferase reporter, cherry pick, set 2 (AID 743343); type: functional;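 also: transfected cells were stimulated with diluted bursicon conditioned medium after compound addition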
[16] = MC4R antagonists, dose response, counter-screen for LGR2 antagonist project, cell-based, plate reader, cherry pick (AID 743444); type: functional;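 also: transfected HEK 293 cells stimulated with alpha-MSH peptide; potency of inhibitors of the alpha-MSH evoked signal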
[17] = target: T5, Sentrin-specific protease 8 (Homo sapiens, UniProt Q96LD8); test: SENP8 protease inhibitors, SAR follow-up, biochemical, luminescence (AID 504501); type: functional
T5 sequence (Q96LD8 whole entry): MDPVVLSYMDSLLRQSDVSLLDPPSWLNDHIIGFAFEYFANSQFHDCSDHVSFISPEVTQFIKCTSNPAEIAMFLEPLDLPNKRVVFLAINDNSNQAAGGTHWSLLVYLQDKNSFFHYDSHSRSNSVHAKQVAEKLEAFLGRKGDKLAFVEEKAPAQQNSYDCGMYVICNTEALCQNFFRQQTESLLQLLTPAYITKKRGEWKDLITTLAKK

[18] = target: Serine/threonine-protein phosphatase PP1-alpha catalytic subunit (Homo sapiens, UniProt P62136); test: PP1 phosphatase inhibitors, dose response, biochemical, fluorescence (AID 2403);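 also: phosphatase turnover of OMFP into fluorescent 3-O-methylfluorescein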
Serine/threonine-protein phosphatase PP1-alpha catalytic subunit, sequence (P62136 whole entry): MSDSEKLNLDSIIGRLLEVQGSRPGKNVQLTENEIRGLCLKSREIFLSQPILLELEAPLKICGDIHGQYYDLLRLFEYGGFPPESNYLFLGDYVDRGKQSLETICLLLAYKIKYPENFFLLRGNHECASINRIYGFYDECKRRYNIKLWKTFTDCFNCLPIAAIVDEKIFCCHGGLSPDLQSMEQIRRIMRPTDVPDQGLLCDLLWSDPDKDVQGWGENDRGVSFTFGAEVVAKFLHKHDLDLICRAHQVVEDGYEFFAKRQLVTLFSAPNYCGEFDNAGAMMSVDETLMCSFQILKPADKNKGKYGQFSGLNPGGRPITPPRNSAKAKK

[19] = target: Serine/threonine-protein phosphatase (Homo sapiens, UniProt Q9BPW0); test: Counterscreen for inhibitors of PP1: fluorescence-based biochemical high throughput dose response assay to identify inhibitors of Protein Phosphatase 5 (PP5). [Related pubchem assays: 2034 (Summary (PP5 inhibitors)), 1987 (PP5 inhibitors in singlate), 2235 (PP1 inhibitors in singlate)]
Serine/threonine-protein phosphatase, sequence (Q9BPW0 whole entry): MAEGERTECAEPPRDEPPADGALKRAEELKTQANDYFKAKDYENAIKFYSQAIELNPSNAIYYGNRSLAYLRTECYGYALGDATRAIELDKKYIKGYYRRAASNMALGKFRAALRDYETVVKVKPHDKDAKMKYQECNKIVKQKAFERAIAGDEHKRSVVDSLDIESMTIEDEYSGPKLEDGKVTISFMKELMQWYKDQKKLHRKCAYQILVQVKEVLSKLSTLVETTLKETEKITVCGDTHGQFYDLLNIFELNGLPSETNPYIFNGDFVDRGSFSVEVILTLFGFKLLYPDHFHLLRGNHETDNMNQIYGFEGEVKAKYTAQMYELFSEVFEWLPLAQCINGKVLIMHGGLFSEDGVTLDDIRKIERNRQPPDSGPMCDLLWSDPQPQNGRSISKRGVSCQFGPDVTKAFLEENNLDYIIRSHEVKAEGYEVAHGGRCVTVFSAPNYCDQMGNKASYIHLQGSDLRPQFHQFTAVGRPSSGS

[20] = target: Transitional endoplasmic reticulum ATPase (Homo sapiens, UniProt P55072, C522A); test: C522A mutant p97 ATPase inhibitors, dose response, counter-screen for p97 inhibitor project, biochemical, luminescence (AID 1544)
Transitional endoplasmic reticulum ATPase (Homo sapiens, UniProt P55072, C522A), sequence (P55072 2-806 C522A limits assumed): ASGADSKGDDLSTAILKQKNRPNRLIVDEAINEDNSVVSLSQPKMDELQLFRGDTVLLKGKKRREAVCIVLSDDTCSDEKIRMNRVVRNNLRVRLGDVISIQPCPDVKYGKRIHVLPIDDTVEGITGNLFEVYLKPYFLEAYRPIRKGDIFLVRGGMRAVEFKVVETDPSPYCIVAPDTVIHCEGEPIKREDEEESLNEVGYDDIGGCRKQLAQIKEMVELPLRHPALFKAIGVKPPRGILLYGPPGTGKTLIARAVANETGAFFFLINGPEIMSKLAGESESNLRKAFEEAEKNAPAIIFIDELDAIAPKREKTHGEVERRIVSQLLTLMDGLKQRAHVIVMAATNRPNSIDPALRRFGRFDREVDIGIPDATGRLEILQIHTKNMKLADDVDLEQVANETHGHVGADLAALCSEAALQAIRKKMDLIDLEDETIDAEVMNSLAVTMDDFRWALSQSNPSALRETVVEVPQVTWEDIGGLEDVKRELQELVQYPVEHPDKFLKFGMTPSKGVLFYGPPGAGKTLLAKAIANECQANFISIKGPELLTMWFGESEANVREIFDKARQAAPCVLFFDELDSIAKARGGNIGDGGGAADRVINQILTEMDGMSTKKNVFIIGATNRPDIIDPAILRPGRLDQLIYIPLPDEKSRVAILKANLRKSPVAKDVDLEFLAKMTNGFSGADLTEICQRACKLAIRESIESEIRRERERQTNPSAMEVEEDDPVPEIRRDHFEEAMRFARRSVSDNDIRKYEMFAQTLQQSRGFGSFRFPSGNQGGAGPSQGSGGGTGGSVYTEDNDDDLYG

[21] = target: Induced myeloid leukemia cell differentiation protein Mcl-1 (Homo sapiens, UniProt Q07820); type: functional
Induced myeloid leukemia cell differentiation protein Mcl-1, sequence (Q07820 whole entry): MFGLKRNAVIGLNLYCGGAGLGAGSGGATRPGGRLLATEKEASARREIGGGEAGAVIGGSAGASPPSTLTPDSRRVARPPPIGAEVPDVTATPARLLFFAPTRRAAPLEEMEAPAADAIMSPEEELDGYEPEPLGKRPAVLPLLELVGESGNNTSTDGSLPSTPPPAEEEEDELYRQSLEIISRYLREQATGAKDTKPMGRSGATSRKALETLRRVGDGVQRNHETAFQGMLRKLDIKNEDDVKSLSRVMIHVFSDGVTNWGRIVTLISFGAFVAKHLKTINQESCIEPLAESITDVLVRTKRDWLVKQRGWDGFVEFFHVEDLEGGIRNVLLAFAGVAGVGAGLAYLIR

[22] = target: Transitional endoplasmic reticulum ATPase (Homo sapiens, UniProt P55072); test: p97 ATPase inhibitors, dose response, biochemical (AID 1534)
Transitional endoplasmic reticulum ATPase (Homo sapiens, UniProt P55072), sequence (P55072 whole entry): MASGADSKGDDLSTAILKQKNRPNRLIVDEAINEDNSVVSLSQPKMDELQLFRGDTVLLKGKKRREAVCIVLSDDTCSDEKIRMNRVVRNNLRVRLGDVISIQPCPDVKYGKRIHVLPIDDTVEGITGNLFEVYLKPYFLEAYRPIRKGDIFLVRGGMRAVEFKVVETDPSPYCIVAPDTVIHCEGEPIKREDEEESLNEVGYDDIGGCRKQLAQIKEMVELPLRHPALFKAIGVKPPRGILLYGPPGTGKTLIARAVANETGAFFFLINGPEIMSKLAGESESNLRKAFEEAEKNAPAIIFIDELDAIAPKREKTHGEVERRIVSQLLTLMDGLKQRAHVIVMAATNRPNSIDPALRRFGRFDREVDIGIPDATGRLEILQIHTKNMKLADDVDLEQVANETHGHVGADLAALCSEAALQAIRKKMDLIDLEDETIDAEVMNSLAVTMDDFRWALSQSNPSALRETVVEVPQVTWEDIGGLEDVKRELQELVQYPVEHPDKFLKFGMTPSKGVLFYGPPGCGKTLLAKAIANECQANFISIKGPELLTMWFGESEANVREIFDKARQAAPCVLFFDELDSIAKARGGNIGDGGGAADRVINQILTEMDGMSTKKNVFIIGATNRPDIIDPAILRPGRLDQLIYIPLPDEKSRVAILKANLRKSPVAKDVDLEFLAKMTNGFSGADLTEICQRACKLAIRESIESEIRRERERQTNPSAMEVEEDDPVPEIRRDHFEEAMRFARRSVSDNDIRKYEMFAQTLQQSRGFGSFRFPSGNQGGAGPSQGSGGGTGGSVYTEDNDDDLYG

Cytochrome P450 1A2 = target: T6, Cytochrome P450 1A2 (Homo sapiens, UniProt P05177);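 also: PubChem cytochrome P450 panel assay, CYP1A2 panel member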
T6 sequence (P05177 whole entry): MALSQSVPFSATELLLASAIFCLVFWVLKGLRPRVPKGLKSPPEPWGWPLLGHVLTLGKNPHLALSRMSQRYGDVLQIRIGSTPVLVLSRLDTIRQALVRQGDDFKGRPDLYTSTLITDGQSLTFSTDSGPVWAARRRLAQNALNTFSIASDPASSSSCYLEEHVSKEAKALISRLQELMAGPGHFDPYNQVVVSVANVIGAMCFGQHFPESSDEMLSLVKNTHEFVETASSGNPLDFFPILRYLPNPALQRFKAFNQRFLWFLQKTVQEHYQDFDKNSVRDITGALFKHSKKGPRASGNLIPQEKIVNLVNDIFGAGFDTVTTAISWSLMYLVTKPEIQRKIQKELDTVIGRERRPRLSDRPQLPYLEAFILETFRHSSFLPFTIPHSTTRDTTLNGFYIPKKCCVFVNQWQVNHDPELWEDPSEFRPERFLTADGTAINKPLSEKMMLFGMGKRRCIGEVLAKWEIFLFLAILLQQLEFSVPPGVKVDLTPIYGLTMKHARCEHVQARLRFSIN

Cytochrome P450 2D6 = Cytochrome P450 2D6 (Homo sapiens, UniProt P10635); test: qHTS Assay for Inhibitors and Substrates of Cytochrome P450 2D6. [Related pubchem assays: 410 ]; type: ADME; settings: read-out: Potency
Cytochrome P450 2D6, sequence (P10635 whole entry): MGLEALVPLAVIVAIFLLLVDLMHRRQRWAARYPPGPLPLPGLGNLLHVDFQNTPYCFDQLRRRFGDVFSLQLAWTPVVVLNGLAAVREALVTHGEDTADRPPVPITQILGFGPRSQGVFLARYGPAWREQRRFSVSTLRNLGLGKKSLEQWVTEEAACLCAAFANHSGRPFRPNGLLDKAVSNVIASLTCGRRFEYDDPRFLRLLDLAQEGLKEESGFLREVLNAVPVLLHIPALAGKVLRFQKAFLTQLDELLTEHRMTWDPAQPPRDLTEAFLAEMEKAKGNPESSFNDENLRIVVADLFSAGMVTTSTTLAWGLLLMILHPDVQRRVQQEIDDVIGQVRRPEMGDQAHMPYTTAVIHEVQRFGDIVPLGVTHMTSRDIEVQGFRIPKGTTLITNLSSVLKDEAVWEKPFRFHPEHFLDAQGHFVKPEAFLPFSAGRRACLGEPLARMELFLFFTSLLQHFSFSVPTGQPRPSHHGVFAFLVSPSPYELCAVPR

Compound: CCOc1cccc(-c2nnc3n2N=C(c2cc(OC)ccc2OC)CS3)c1
- EC50 [1]: 9.53 µM (active)
- EC50 [2]: 13.1 µM (active)
- EC50 [3]: 10.5 µM (active)
- EC50 [4]: > 12 µM (not active)
- EC50 (cells): > 12 µM (not active)
- EC50 [5]: < 100 nM (active)
- IC50 [6]: > 80 µM (inactive)

Compound: COc1ccc(NC(=O)C(=O)O)cc1
- IC50 [7]: > 100 µM (not active)
- IC50 [8]: > 100 µM (not active)
- IC50 [9]: > 100 µM (not active)

Compound: O=C(O)c1ccc(N/N=C/c2c[nH]c3ccccc23)cc1
- IC50 [10]: 47.7 µM (active)
- IC50 [11]: 869 nM (active)
- IC50 [12]: 985 nM (active)
- IC50 (Caspase-3): 906 nM (active)
- AC50 [13]: > 52 µM (inactive)
- IC50 [14]: > 39.8 µM (not active)
- AC50 [15]: 2.15 µM (active)
- AC50 [16]: 2.25 µM (active)
- IC50 [17]: 794 nM (active)

Compound: COc1cnc(-c2ccccn2)nc1Oc1cccc(C(F)(F)F)c1
- IC50 [18]: 7.79 µM (active)
- IC50 [19]: > 67 µM (not active)

Compound: Cc1cc2c(C(C)C)c(O)c(O)c(C=O)c2c(O)c1-c1c(C)cc2c(C(C)C)c(O)c(O)c(C=O)c2c1O
- IC50 [20]: 15.5 µM (not active)
- IC50 [21]: 1.36 µM (active)
- IC50 [22]: 5.39 µM (active)

Compound: CCOC(=O)C1=C(C)NC(C)=C(C(=O)OC)[C@H]1c1cccc([N+](=O)[O-])c1 [(R)-NITRENDIPINE]
- AC50 (Cytochrome P450 1A2): 31.6 µM (inconclusive)
- AC50 (Cytochrome P450 2D6): 10 µM (inconclusive)
